Experiments:
Type in all cases: biochemical
[1] = target: trypsin-like activity of the 20S CP (Homo sapiens, UniProt Q99436); assay: Kinetic assay, T-L FRET reporter hydrolysis by purified 20S CP; details: 25 μM compound, T-L FRET reporter; basal level set to 100%
Protocol: (§1) Plate preparation for the kinetic assay was performed similarly for all assays. All 96-well plates contained the following in triplicate: reporter background, containing reporter only, and control wells, containing reporter and purified 20S CP. It was determined that each well will contain a total volume of 50 μL. To each well was added 40 μL of the coumarin or FRET reporters (in Tris-HCl, 50 mM, pH 7.7). To the reporter background wells was added 7.5 μL Tris-HCl and 2.5 μL of the solvent in which the compound of interest was dissolved or diluted. Similarly, to the control wells was added 2.5 μL Tris-HCl and 2.5 μL of the solvent in which the compound of interest was dissolved or diluted. To the test wells was added 2.5 μL Tris-HCl and 2.5 μL of the compound of interest at a predetermined concentration. Immediately prior to running the assay on the Synergy 4 Plate Reader, 5 μL purified 20S proteasome (90 nM in Tris-HCl) was added to the control and test wells.
The Synergy 4 Plate Reader was set to heat the plate at 37° C. and read fluorescence every 2 min over a 40 min period. The excitation and emission wavelengths were set according to the reporter. For the FRET reporter, the excitation and emission wavelengths were set to 335 nm and 493 nm, respectively, corresponding to the excitation and emission wavelengths of the Edans fluorophore. […]
Stimulation of the 20S proteasome with SDS was determined using both the coumarin and FRET reporters for the chymotrypsin-like and trypsin-like activities of the 20S CP. […] Immediately prior to running the assay on the Synergy 4 Plate Reader, 5 μL purified 20S proteasome (90 nM in Tris-HCl) was added to the control and test wells. The assay was performed using the Synergy 4 plate reader as described for the general screening kinetic assay procedure. […]
To each well was added 40 μL 20 μM T-L FRET reporter (in Tris-HCl, 50 mM, pH 7.7). […] Immediately prior to running the assay on the Synergy 4 Plate Reader, 5 μL purified 20S proteasome (90 nM in Tris-HCl) was added to the control and test wells.

[2] = target: T1, chymotrypsin-like activity of the 20S CP (Homo sapiens, UniProt P28074); assay: Kinetic assay, CT-L FRET reporter hydrolysis by purified 20S CP; details: CT-L FRET reporter; for EC50: dose response 0.78125-400 μM, triplicate, read-out: EC50 (concentration of half of the maximum stimulation) for 20S CP stimulation
T1 construct: 5 μL purified 20S proteasome (90 nM in Tris-HCl) was added to the control and test wells
Protocol: as §1
The Synergy 4 Plate Reader was set to heat the plate at 37° C. and read fluorescence every 2 min over a 40 min period. The excitation and emission wavelengths were set according to the reporter. For the FRET reporter, the excitation and emission wavelengths were set to 335 nm and 493 nm, respectively, corresponding to the excitation and emission wavelengths of the Edans fluorophore. For the coumarin reporter, the excitation and emission wavelengths were set to 380 nm and 460 nm, respectively.
(§2) AM-404 was used as a positive control compound to test the dose-response screening capabilities of the CT-L FRET reporter. The following concentrations of AM-404 were tested in triplicate: 50, 25, and 12.5 μM. To each well was added 40 μL 20 μM CT-L FRET (in Tris-HCl, 50 mM, pH 7.7). To the reporter background wells was added 5 μL Tris-HCl and 5 μL 1:1 Tris-HCl:DMSO. Similarly, to the control wells was added 5 μL 1:1 Tris-HCl:DMSO. To the 50 μM AM-404 test wells was added 2.5 μL Tris-HCl and 2.5 μL 1000 μM AM-404 in DMSO. To the 25 μM AM-404 test wells was added 2.5 μL Tris-HCl and 2.5 μL 500 μM AM-404 in DMSO. To the 12.5 μM AM-404 test wells was added 2.5 μL Tris-HCl and 2.5 μL 250 μM AM-404 in DMSO. Immediately prior to running the assay on the Synergy 4 Plate Reader, 5 μL purified 20S proteasome (90 nM in Tris-HCl) was added to the control and test wells. The assay was performed using the Synergy 4 plate reader as described for the general screening kinetic assay procedure.
as §2, with “Fenofibrate was” for “AM-404 was”, “a negative” for “a positive”, “of fenofibrate” for “of AM-404”, “μM fenofibrate” for “μM AM-404”, “procedure. […]” for “procedure.”

[3] = target: T2, chymotrypsin-like activity of the 26S proteasome (Homo sapiens, UniProt P28074); assay: Kinetic assay, CT-L FRET reporter with 26S proteasome; details: 25 μM compound
T2 construct: 5 μL purified 26S proteasome (62.5 μg/mL in Tris-HCl) was added to the control and test wells
Protocol: Compounds 1, 2, and 3 were screened with the 26S proteasome in triplicate using the CT-L FRET reporter.
To each well was added 40 μL 20 μM CT-L FRET reporter (in Tris-HCl, 50 mM, pH 7.7). To the reporter background wells was added 5 μL Tris-HCl and 5 μL 1:1 Tris-HCl:DMSO. Similarly, to the control wells was added 5 μL 1:1 Tris-HCl:DMSO. To the test wells was added 2.5 μL Tris-HCl and 2.5 μL of a 500 μM solution of the compound of interest in DMSO. […] Immediately prior to running the assay on the Synergy 4 Plate Reader, 5 μL purified 26S proteasome (62.5 μg/mL in Tris-HCl) was added to the control and test wells.
The assay was performed using the Synergy 4 plate reader as described for the general screening kinetic assay procedure.

Structure (SMILES)	stimulation of the trypsin-like activity of the 20S CP [1]	EC50 [2]	20S CP stimulation over basal level (dose response curve) ([2]; maximum of dose response curve)	ability to stimulate the 26S proteasome's CT-L activity [3]
C[C@H]1[C@H](C)CC[C@]2(C(=O)O)CC[C@]3(C)C(=CC[C@@H]4[C@@]5(C)CC[C@H](O)C(C)(C)[C@@H]5CC[C@]43C)[C@H]12 [Compound 2, ursolic acid]	234%	14 µM	100%	Neither molecules 2 or 3 affected the rate
Cc1c(C)c2c(c(C)c1OC(=O)CCC(=O)O)CC[C@@](C)(CCC[C@H](C)CCC[C@H](C)CCCC(C)C)O2 [Compound 3, vitamin E succinate]	146%	7 µM	–	Neither molecules 2 or 3 affected the rate
